Patent publication US20170304388A1, “NEW INDICATION OF CARDIOVASCULAR DRUGS FOR PREPARATION OF CANCER INHIBITION PHARMACEUTICAL COMPOSITION” (LAUNX BIOMEDICAL CO., LTD., priority 2014, published 2017)

Tests used:
Format in all cases: cell-based
786-O = assay: Cell viability analysis (WST-1), 786-O; conditions: Table 4, repeated experiments, drug 10 μM
Experimental: (§1) Subculture the different types of cancer cells. The cancer cells includes lung cancer, gastric cancer, hepatic cancer, colon cancer, skin cancer, cervical cancer, prostate cancer, bladder cancer, breast cancer, leukemia, pancreatic cancer, ovarian cancer, tongue cancer, osteosarcoma, and renal cancer. The cell numbers were counted and reseed as 2×10^6 in cell culture plate/flask. Then, the culture medium for culturing the cell lines was added to a volume of 10 ml, and the cells were cultured for 2-3 days. Then, the cells were suspended for loading into 96-well plates. The cell number was 3000 cells and the volume of the culture medium was 100 ul each well.
(§2) Removing the original culture medium from 96-well plate. Then add 100 μl of commercially drug at a concentration of 10 μM per well. After 72 hours, add the diluted WST-1 reagent to the well with 100 μl/well, and the diluted WST-1 reagent was acquired from the dilution of 9:1 medium and WST-1 stock reagent. Finally, the total volume of each well are 200 μl/well. Culture the 96-well plate at 37° C. for 30 to 90 minutes. Detecting and calculating the survival rate of each cancer cells with an ELISA reader at OD450 nm. The lower viability of cancer cells represents better inhibition effect via the drugs. Otherwise, the higher viability of cancer cells represents worse inhibition effect via the drugs.
(§3) According to the above mentioned cardiovascular drugs for cancer growth inhibition in Table 3, the inventors took the repeat experiments for the cardiovascular drugs to check the growth inhibitory effects of cancer cells by the cardiovascular drugs. […] 4.

C-33A = assay: Cell viability analysis (WST-1), C-33A; conditions: Table 4, repeated experiments, drug 10 μM
Experimental: as §1, §2, §3

[1] = tested on: LoVo (Colorectal Adenocarcinoma); assay: Cell viability analysis (WST-1), LoVo; conditions: Table 4, repeated experiments, drug 10 μM
[2] = tested on: HeLa (Cervix Adenocarcinoma); assay: Cell viability analysis (WST-1), HeLa; conditions: Table 4, repeated experiments, drug 10 μM
[3] = tested on: A375 (Amelanotic Melanoma); assay: Cell viability analysis (WST-1), A375; conditions: Table 4, repeated experiments, drug 10 μM
[4] = tested on: HepG2 (Hepatocellular Carcinoma); assay: Cell viability analysis (WST-1), HepG2; conditions: Table 4, repeated experiments, drug 10 μM
TOV-21G = assay: Cell viability analysis (WST-1), TOV-21G; conditions: Table 4, repeated experiments, drug 10 μM
Experimental: as §1, §2, §3

BCC = assay: Cell viability analysis (WST-1), BCC; conditions: Table 4, repeated experiments, drug 10 μM
NIH-OVCAR-3 = assay: Cell viability analysis (WST-1), NIH-OVCAR-3; conditions: Table 4, repeated experiments, drug 10 μM
Experimental: as §1, §2, §3

[5] = tested on: PC3 (Prostate Adenocarcinoma); assay: Cell viability analysis (WST-1), PC3; conditions: Table 4, repeated experiments, drug 10 μM
[6] = tested on: H1650 (Lung Adenocarcinoma); assay: Cell viability analysis (WST-1), H1650; conditions: Table 4, repeated experiments, drug 10 μM
[7] = tested on: TSGH-8301 (Urinary Bladder Carcinoma); assay: Cell viability analysis (WST-1), TSGH-8301; conditions: Table 4, repeated experiments, drug 10 μM
Hep3B = assay: Cell viability analysis (WST-1), Hep3B; conditions: Table 4, repeated experiments, drug 10 μM
Experimental: as §1, §2, §3

AsPC-1 = assay: Cell viability analysis (WST-1), AsPC-1; conditions: Table 4, repeated experiments, drug 10 μM
Procedure, shortened: (§4)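 Cancer cells seeded at 3000 cells/well, then medium replaced with drug at 10 μM. After 72 h, WST-1 diluted 9:1 in medium was added and plates incubated at 37° C for 30 to 90 minutes; survival rate calculated from OD450 nm.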

[8] = tested on: A549 (Lung Adenocarcinoma); assay: Cell viability analysis (WST-1), A549; conditions: Table 4, repeated experiments, drug 10 μM
T24 = assay: Cell viability analysis (WST-1), T24; conditions: Table 4, repeated experiments, drug 10 μM
Experimental: as §1, §2, §3

[9] = tested on: AGS (Gastric Adenocarcinoma); assay: Cell viability analysis (WST-1), AGS; conditions: Table 4, repeated experiments, drug 10 μM
[10] = tested on: MKN-45 (Gastric Adenocarcinoma); assay: Cell viability analysis (WST-1), MKN-45; conditions: Table 4, repeated experiments, drug 10 μM
[11] = tested on: MCF7 (Mammary Gland, Adenocarcinoma); assay: Cell viability analysis (WST-1), MCF7; conditions: Table 4, repeated experiments, drug 10 μM
MDA-MB231 = assay: Cell viability analysis (WST-1), MDA-MB231; conditions: Table 4, repeated experiments, drug 10 μM
[12] = tested on: HCT116 (Colorectal Carcinoma); assay: Cell viability analysis (WST-1), HCT116; conditions: Table 4, repeated experiments, drug 10 μM
U2OS = assay: Cell viability analysis (WST-1), U2OS; conditions: Table 4, repeated experiments, drug 10 μM
Experimental: as §1, §2, §3

cancer cell lines = assay: Growth inhibitory effects on the panel of cancer cell lines; conditions: drug 10 μM, 72 hours, WST-1
BxPC-3 = assay: Cell viability analysis (WST-1), BxPC-3; conditions: Table 4, repeated experiments, drug 10 μM
Procedure, shortened: as §4

SAS = assay: Cell viability analysis (WST-1), SAS; conditions: Table 4, repeated experiments, drug 10 μM
Procedure, shortened: as §4

SMILES: CC(C)c1c(C(=O)Nc2ccccc2)c(-c2ccccc2)c(-c2ccc(F)cc2)n1CC[C@@H](O)C[C@@H](O)CC(=O)[O-].CC(C)c1c(C(=O)Nc2ccccc2)c(-c2ccccc2)c(-c2ccc(F)cc2)n1CC[C@@H](O)C[C@@H](O)CC(=O)[O-].[Ca+2] [Atorvastatin calcium (Lipitor), Atorvastatin calcium]
- survival rate (viability) of cancer cells, 786-O (786-O; 72 hours): 32.54
- survival rate (viability) of cancer cells, C-33A (C-33A; 72 hours): 96.95
- survival rate (viability) of cancer cells, LoVo ([1]; 72 hours, WST-1): 103.0307
- survival rate (viability) of cancer cells, HeLa ([2]; 72 hours, WST-1): 78.64
- survival rate (viability) of cancer cells, A375 ([3]; 72 hours, WST-1): 23.01
- survival rate (viability) of cancer cells, HepG2 ([4]; 72 hours, WST-1): 95.92
- survival rate (viability) of cancer cells, TOV-21G (TOV-21G; 72 hours): 34.04
- survival rate (viability) of cancer cells, BCC (BCC; 72 hours): 41.49
- survival rate (viability) of cancer cells, NIH-OVCAR-3 (NIH-OVCAR-3; 72 hours): 98.3
- survival rate (viability) of cancer cells, PC-3 ([5]; 72 hours, WST-1): 56.4832
- survival rate (viability) of cancer cells, H1650 ([6]; 72 hours, WST-1): 69.55
- survival rate (viability) of cancer cells, TSGH-8301 ([7]; 72 hours, WST-1): 70.59
- survival rate (viability) of cancer cells, Hep3B (Hep3B; 72 hours): 91.86
- survival rate (viability) of cancer cells, AsPC-1 (AsPC-1; 72 hours): 81.1
- survival rate (viability) of cancer cells, A549 ([8]; 72 hours, WST-1): 90.1462
- survival rate (viability) of cancer cells, T24 (T24; 72 hours): 78.47
- survival rate (viability) of cancer cells, AGS ([9]; 72 hours, WST-1): 31.48
- survival rate (viability) of cancer cells, MKN-45 ([10]; 72 hours, WST-1): 84.18
- survival rate (viability) of cancer cells, MCF-7 ([11]; 72 hours, WST-1): 79.08
- survival rate (viability) of cancer cells, MDA-MB231 (MDA-MB231; 72 hours): 47.84
- survival rate (viability) of cancer cells, HCT116 ([12]; 72 hours, WST-1): 82.55
- survival rate (viability) of cancer cells, U2OS (U2OS; 72 hours): 86.25
- inhibition effect on different cancer cell lines (in words) (cancer cell lines): significant inhibition effect
- survival rate (viability) of cancer cells, BxPC-3 (BxPC-3; 72 hours): 81.03
- survival rate (viability) of cancer cells, SAS (SAS; 72 hours): 76.29

SMILES: CCC[C@H](N[C@@H](C)C(=O)N1[C@H](C(=O)O)C[C@@H]2CCCC[C@@H]21)C(=O)OCC [Perindopril Erbumine (Aceon), Perindopril Erbumine]
- viability at 10 µM (786-O; Homo sapiens, 786-0, 72 h, read-out: survival rate (viability) of cancer cells, 786-O): 86.2%
- viability at 10 µM (C-33A; Homo sapiens, C-33-A, 72 h, read-out: survival rate (viability) of cancer cells, C-33A): 90.9%
- viability at 10 µM ([1]; Homo sapiens, LoVo, 72 h, WST-1, read-out: survival rate (viability) of cancer cells, LoVo): 83.5%
- viability at 10 µM ([2]; Homo sapiens, HeLa, 72 h, WST-1, read-out: survival rate (viability) of cancer cells, HeLa): 66.7%
- viability at 10 µM ([3]; Homo sapiens, A-375, 72 h, WST-1, read-out: survival rate (viability) of cancer cells, A375): 83.2%
- viability at 10 µM ([4]; Homo sapiens, HepG2, 72 h, WST-1, read-out: survival rate (viability) of cancer cells, HepG2): 99.4%
- viability at 10 µM (TOV-21G; Homo sapiens, TOV21G, 72 h, read-out: survival rate (viability) of cancer cells, TOV-21G): 71.2%
- viability at 10 µM (BCC; BCC, 72 h, read-out: survival rate (viability) of cancer cells, BCC): 58.7%
- viability at 10 µM (NIH-OVCAR-3; Homo sapiens, OVCAR-3, 72 h, read-out: survival rate (viability) of cancer cells, NIH-OVCAR-3): 79.6%
- viability at 10 µM ([5]; 72 h, WST-1, read-out: survival rate (viability) of cancer cells, PC-3): 81.1%
- viability at 10 µM ([6]; Homo sapiens, NCI-H1650, 72 h, WST-1, read-out: survival rate (viability) of cancer cells, H1650): 78.6%
- viability at 10 µM ([7]; 72 h, WST-1, read-out: survival rate (viability) of cancer cells, TSGH-8301): 105%
- viability at 10 µM (Hep3B; Homo sapiens, Hep3B, 72 h, read-out: survival rate (viability) of cancer cells, Hep3B): 99.5%
- viability at 10 µM (AsPC-1; Homo sapiens, ASPC1, 72 h, read-out: survival rate (viability) of cancer cells, AsPC-1): 64.2%
- viability at 10 µM ([8]; Homo sapiens, A549, 72 h, WST-1, read-out: survival rate (viability) of cancer cells, A549): 71.9%
- viability at 10 µM (T24; Homo sapiens, T-24, 72 h, read-out: survival rate (viability) of cancer cells, T24): 87.9%
- viability at 10 µM ([9]; 72 h, WST-1, read-out: survival rate (viability) of cancer cells, AGS): 87.1%
- viability at 10 µM ([10]; Homo sapiens, MKN-45, 72 h, WST-1, read-out: survival rate (viability) of cancer cells, MKN-45): 73.8%
- viability at 10 µM ([11]; Homo sapiens, MCF7, 72 h, WST-1, read-out: survival rate (viability) of cancer cells, MCF-7): 75.6%
- viability at 10 µM (MDA-MB231; Homo sapiens, MDA-MB-231, 72 h, read-out: survival rate (viability) of cancer cells, MDA-MB231): 63.8%
- viability at 10 µM ([12]; Homo sapiens, HCT-116, 72 h, WST-1, read-out: survival rate (viability) of cancer cells, HCT116): 65%
- viability at 10 µM (U2OS; Homo sapiens, U2OS, 72 h, read-out: survival rate (viability) of cancer cells, U2OS): 74%
- inhibition effect on different cancer cell lines (in words) (cancer cell lines): significant inhibition effect
- viability at 10 µM (BxPC-3; Homo sapiens, BXPC-3, 72 h, read-out: survival rate (viability) of cancer cells, BxPC-3): 50%
- viability at 10 µM (SAS; 72 h, read-out: survival rate (viability) of cancer cells, SAS): 52.5%
